Non-standard residues stand in square brackets, D forms with d. Residues, ends and D or L forms follow the SMILES beside them.
Legend:
[1] = system: primary cortical neuronal cultures; test: Light microscopy assessment of neuronal damage after glutamate exposure; assay type: cell-based, rat; settings: for neuronal morphology (cellular rounding, survival) after glutamate exposure: light microscopy, one hour to 18 hours post glutamate exposure; for neurons that appeared intact and viable: Sprague-Dawley, rat, 18 hours
Procedure: Cortical neuronal cultures were established as described by Meloni et al., Neuroscience 108, 17-26, 2001. Briefly, cortical tissue from E18-E19 Sprague-Dawley rats was dissociated in Dulbelcco's Modified Eagle Medium (DMEM; Invitrogen, Australia) supplemented with 1.3 mM L-cysteine, 0.9 mM NaHCO3, 10 units/ml papain (Sigma, USA) and 50 units/ml DNase (Sigma) and washed in cold DMEM/10% (v/v) horse serum. Neurons were resuspended in Neurobasal (NB; Invitrogen) containing 2% B27 supplement (B27; Invitrogen). Before seeding, culture vessels comprising either a 96-well plastic plate or 24-well plastic plate with 13 mm glass coverslips (ProSciTech, Australia), were coated with poly-D-lysine (50 μg/mL; 70-150K; Sigma) and incubated overnight at room temperature. The poly-D-lysine was removed and replaced with NB (containing 2% B27; 4% fetal bovine serum; 1% horse serum; 62.5 μM glutamate; 25 μM 2-mercaptoethanol; and 30 μg/mL streptomycin and 30 μg/mL penicillin). Neurons were plated to obtain approximately 10,000 viable neurons for each well of a 96-well plate, or 200,000 viable neurons per well of a 24-well plate, on day in vitro (DIV) […]. Neuronal cultures were maintained in a CO2 incubator (5% CO2, 95% air balance, 98% humidity) at 37° C. On DIV 4, one third of the culture medium was removed and replaced with fresh NB/2% B27 containing the mitotic inhibitor, cytosine arabinofuranoside (Sigma) at 1 μM concentration. On DIV 8, one half of the culture medium was replaced with NB/2% B27. Cultures were used on DIV 11 or 12, and consisted of >95% neurons.
(§1) To induce glutamate excitotoxicity in the cortical neuronal cultures (96-well plate format), 50 μl of conditioned media containing 200 μM glutamate was added to culture wells containing 50 μl conditioned media (100 μM final glutamate concentration). Cultures were incubated at 37° C. in a CO2 incubator for 5 minutes, after which time the media was replaced with 100 μl of 50% NB/2% N2 and 50% balance salt solution (NB/N2:BSS).
(§2) Eighteen hours after glutamate exposure, neuronal cultures were examined by light microscopy for qualitative assessment of neuronal damage. Neuronal viability was quantitatively measured by 3-(4,5,dimethyliazol-2-yl)-5-(3-carboxymethoxy-phenyl)-2-(4-sulfophenyl)-2H-tetrazolium salt (MTS) assay (Promega, Australia). The MTS assay measures the mitochondrial conversion of the tetrazolium salt to a water-soluble brown formazan salt, which is detected spectrophotometrically at 495 nm. MTS absorbance data was converted to reflect proportional cell viability relative to both the untreated and glutamate treated controls. […] All assays were performed with quadruplicate sister neuronal cultures repeated a minimum of four times independently.

[2] = system: primary cortical neuronal cultures; test: Glutamate excitotoxicity in primary cortical neuronal cultures, neuronal viability by MTS assay; assay type: cell-based, rat; settings: for neuroprotection compared with JNKI-1D-TAT: 1 μM concentration
Procedure: Neurons were resuspended in Neurobasal (NB; Invitrogen) containing 2% B27 supplement (B27; Invitrogen). Before seeding, culture vessels comprising either a 96-well plastic plate or 24-well plastic plate with 13 mm glass coverslips (ProSciTech, Australia), were coated with poly-D-lysine (50 μg/mL; 70-150K; Sigma) and incubated overnight at room temperature. […] Neurons were plated to obtain approximately 10,000 viable neurons for each well of a 96-well plate, or 200,000 viable neurons per well of a 24-well plate, on day in vitro (DIV) […]. […] On DIV 4, one third of the culture medium was removed and replaced with fresh NB/2% B27 containing the mitotic inhibitor, cytosine arabinofuranoside (Sigma) at 1 μM concentration. On DIV 8, one half of the culture medium was replaced with NB/2% B27.
as §1
Untreated and glutamate-treated control samples received media additions with and without glutamate respectively.
as §2

[3] = Sprague-Dawley, rat, 18 h, 5 μM
[4] = 2 μM extracellular concentration

SMILES | neuronal morphology (cellular rounding, survival) after glutamate exposure [1] | neuroprotection compared with JNKI-1D-TAT [2] | neuronal viability following glutamate excitotoxicity [2, 3] | neurons that appeared intact and viable [1] | neuroprotection following glutamate excitotoxicity [2, 4] | further results
CC(C)C[C@@H](NC(=O)[C@@H](Cc1ccccc1)NC(=O)[C@H]1CCCN1C(=O)[C@@H](CCC(N)=O)NC(=O)[C@H](NC(=O)[C@H]1CCCN1C(=O)[C@@H](CCCNC(=N)N)NC(=O)[C@@H](CO)NC(=O)[C@@H](CCC(N)=O)NC(=O)[C@@H](CC(=O)O)NC(=O)[C@H](N)[C@H](C)O)C(C)C)C(=O)N[C@H](CC(N)=O)C(=O)N[C@H](CC(C)C)C(=O)N[C@@H](C(=O)N[C@@H](C(=O)N1CCC[C@@H]1C(=O)N[C@H](CCCNC(=N)N)C(=O)N[C@H](CCCCN)C(=O)N1CCC[C@@H]1C(=O)N[C@H](CCCNC(=N)N)C(=O)N1CCC[C@@H]1C(=O)N1CCC[C@@H]1C(=O)N[C@H](CCCNC(=N)N)C(=O)N[C@H](CCCNC(=N)N)C(=O)N[C@H](CCCNC(=N)N)C(=O)N[C@H](CCC(N)=O)C(=O)N[C@H](CCCNC(=N)N)C(=O)N[C@H](CCCNC(=N)N)C(=O)N[C@H](CCCCN)C(=O)N[C@H](CCCCN)C(=O)N[C@H](CCCNC(=N)N)C(=O)NCC(=O)O)[C@H](C)O)[C@H](C)O [JNK1-1D-TAT, reference compound] | did not begin to round and survived glutamate excitotoxicity | – | – | – | – | neuronal viability following glutamate excitotoxicity ([2]; 5 μM extracellular peptide, 100 μM glutamate 5 min, MTS 18 h, no insult = 100%, listed as JNKI-1 D-TAT): 75%; neuronal viability following glutamate excitotoxicity ([2]; 5 μM extracellular peptide, 100 μM glutamate 5 min, MTS 18 h, no insult = 100%, listed as JNKI-1D-TAT): 89%; extracellular concentration providing significant neuroprotection ([2]; glutamate excitotoxicity, dose response 0.1-10 μM): ≥ 2 µM; concentrations at which significant neuroprotection is exhibited ([2]; glutamate excitotoxicity, p<0.0077): micromolar concentrations
CC[C@@H](C)[C@@H](NC(=O)[C@H](N)Cc1ccc(O)cc1)C(=O)N[C@H](Cc1ccc(O)cc1)C(=O)N1CCC[C@@H]1C(=O)N[C@H](Cc1ccc(O)cc1)C(=O)N[C@H](C)C(=O)N[C@H](Cc1ccc(O)cc1)C(=O)N[C@H](CO)C(=O)N[C@H](CCC(N)=O)C(=O)N[C@H](CC(N)=O)C(=O)N[C@@H](C(=O)N[C@H](CC(C)C)C(=O)NCC(=O)N[C@H](CCCNC(=N)N)C(=O)N[C@H](CCCNC(=N)N)C(=O)N[C@H](CCCNC(=N)N)C(=O)N[C@H](CCC(N)=O)C(=O)N[C@H](CCCNC(=N)N)C(=O)N[C@H](CCCNC(=N)N)C(=O)N[C@H](CCCCN)C(=O)N[C@H](CCCCN)C(=O)N[C@H](CCCNC(=N)N)C(=O)NCC(=O)O)[C@H](C)CC [PYC19D-TAT] | – | greater neuroprotection than JNKI-1D-TAT | 68% | – | – | neuroprotection following glutamate excitotoxicity ([2]; 1 μM extracellular concentration): significant neuroprotection; neuroprotection of D-isoform compared with L-isoform ([2]; concentrations higher than 1 μM): clearly provides enhanced neuroprotection
CC[C@@H](C)[C@@H](NC(=O)[C@@H](CCC(=O)O)NC(=O)[C@@H](CO)NC(=O)[C@@H](CO)NC(=O)[C@@H](CO)NC(=O)[C@@H](CCCCN)NC(=O)[C@@H](CCCNC(=N)N)NC(=O)[C@@H](CCC(=O)O)NC(=O)[C@H](N)CCCNC(=N)N)C(=O)NCC(=O)NCC(=O)N[C@H](CO)C(=O)N[C@H](CCCNC(=N)N)C(=O)N[C@@H](C(=O)N[C@H](CO)C(=O)N[C@H](CCC(N)=O)C(=O)N[C@H](Cc1ccc(O)cc1)C(=O)N[C@H](C)C(=O)NCC(=O)O)[C@H](C)CC [PYC35D, Arg Glu Arg Lys Ser Ser Ser Glu Ile Gly Gly Ser Arg Ile Ser Gln Tyr Ala Gly] (H-[dR][dE][dR][dK][dS][dS][dS][dE][dI]GG[dS][dR][dI][dS][dQ][dY][dA]G-OH; N-terminus and C-terminus assumed) | displayed cellular rounding | – | – | 2-5% | – | –
CC[C@@H](C)[C@@H](NC(=O)[C@@H](CCCCN)NC(=O)[C@H]1CCCN1)C(=O)N[C@H](CO)C(=O)N[C@H](CCC(N)=O)C(=O)N[C@H](Cc1ccc(O)cc1)C(=O)NCC(=O)N[C@H](CCC(N)=O)C(=O)N[C@H](CCCNC(=N)N)C(=O)N[C@H](CCCNC(=N)N)C(=O)N[C@H](CCCNC(=N)N)C(=O)NCC(=O)N[C@H](CCC(N)=O)C(=O)N[C@H](CC(C)C)C(=O)NCC(=O)O [PYC36D, Pro Lys Ile Ser Gln Tyr Gly Gln Arg Arg Arg Gly Gln Leu Gly] (H-[dP][dK][dI][dS][dQ][dY]G[dQ][dR][dR][dR]G[dQ][dL]G-OH; N-terminus and C-terminus assumed) | displayed cellular rounding | – | – | 2-5% | – | –
CC(C)C[C@@H](NC(=O)[C@H]1CCCN1C(=O)[C@@H](C)NC(=O)[C@@H](Cc1c[nH]cn1)NC(=O)[C@H](N)CCCNC(=N)N)C(=O)N[C@H](C)C(=O)N[C@H](CCCNC(=N)N)C(=O)NCC(=O)N[C@H](CO)C(=O)N[C@H](Cc1c[nH]c2ccccc12)C(=O)N[C@H](CCCNC(=N)N)C(=O)NCC(=O)N[C@H](CCC(N)=O)C(=O)N1CCC[C@@H]1C(=O)N[C@H](CCC(N)=O)C(=O)N[C@H](CCC(N)=O)C(=O)NCC(=O)N1CCC[C@@H]1C(=O)N[C@H](CCC(N)=O)C(=O)N[C@H](CCCNC(=N)N)C(=O)N[C@H](CCCNC(=N)N)C(=O)NCC(=O)N[C@H](CCC(N)=O)C(=O)N[C@H](CC(C)C)C(=O)NCC(=O)NCC(=O)N[C@H](CCCNC(=N)N)C(=O)N[C@H](CCCNC(=N)N)C(=O)N[C@H](CCCNC(=N)N)C(=O)N[C@H](CCC(N)=O)C(=O)N[C@H](CCCNC(=N)N)C(=O)N[C@H](CCCNC(=N)N)C(=O)N[C@H](CCCCN)C(=O)N[C@H](CCCCN)C(=O)N[C@H](CCCNC(=N)N)C(=O)NCC(=O)O [PYC38/39D-TAT] (H-[dR][dH][dA][dP][dL][dA][dR]G[dS][dW][dR]G[dQ][dP][dQ][dQ]G[dP][dQ][dR][dR]G[dQ][dL]GG[dR][dR][dR][dQ][dR][dR][dK][dK][dR]G-OH; N-terminus and C-terminus assumed) | – | greater neuroprotection than JNKI-1D-TAT | 83% | – | initial significant neuroprotection | –
CC[C@@H](C)[C@@H](NC(=O)[C@@H](CC(N)=O)NC(=O)[C@@H](CCC(N)=O)NC(=O)[C@@H](CCC(=O)O)NC(=O)[C@@H](Cc1c[nH]cn1)NC(=O)[C@@H](Cc1c[nH]cn1)NC(=O)[C@@H](CCCNC(=N)N)NC(=O)[C@@H](CC(C)C)NC(=O)[C@@H](CC(C)C)NC(=O)[C@H]1CCCN1C(=O)[C@H](N)CC(C)C)C(=O)N[C@H](CO)C(=O)N[C@@H](C(=O)NCC(=O)N[C@H](CCCNC(=N)N)C(=O)N[C@H](CCCNC(=N)N)C(=O)N[C@H](CCCNC(=N)N)C(=O)N[C@H](CCC(N)=O)C(=O)N[C@H](CCCNC(=N)N)C(=O)N[C@H](CCCNC(=N)N)C(=O)N[C@H](CCCCN)C(=O)N[C@H](CCCCN)C(=O)N[C@H](CCCNC(=N)N)C(=O)NCC(=O)O)C(C)C [PYC41D-TAT] | – | – | 40% | – | initial significant neuroprotection | –
